Results reported in the CheMixHub viscosity set.
“And” between values parts separate entries of the source, which are not always exact repeats. Equal entries are not always repeated.

Assay: xn = mol fraction of the nth substance listed

COc1ccccc1 + c1ccccc1
101.33 kPa
Conditions | viscosity
293.15 K, x1 = 0.0945 | 0.7297 mPa·s
293.15 K, x1 = 0.1951 | 0.7551 mPa·s
293.15 K, x1 = 0.2984 | 0.8001 mPa·s
293.15 K, x1 = 0.3942 | 0.8413 mPa·s
293.15 K, x1 = 0.5178 | 0.9017 mPa·s
293.15 K, x1 = 0.6157 | 0.9434 mPa·s
293.15 K, x1 = 0.6574 | 0.9641 mPa·s
293.15 K, x1 = 0.8116 | 1.052 mPa·s
293.15 K, x1 = 0.906 | 1.097 mPa·s
298.15 K, x1 = 0.0945 | 0.6765 mPa·s
298.15 K, x1 = 0.1 | 0.635 mPa·s
298.15 K, x1 = 0.1025 | 0.6396 mPa·s
298.15 K, x1 = 0.1951 | 0.7095 mPa·s
298.15 K, x1 = 0.2 | 0.671 mPa·s and 0.671 mPa·s
298.15 K, x1 = 0.2004 | 0.6806 mPa·s
298.15 K, x1 = 0.2984 | 0.7437 mPa·s
298.15 K, x1 = 0.3003 | 0.7121 mPa·s
298.15 K, x1 = 0.3942 | 0.7772 mPa·s
298.15 K, x1 = 0.4 | 0.742 mPa·s
298.15 K, x1 = 0.402 | 0.7553 mPa·s
298.15 K, x1 = 0.4985 | 0.7849 mPa·s
298.15 K, x1 = 0.5 | 0.782 mPa·s and 0.782 mPa·s
298.15 K, x1 = 0.5178 | 0.8397 mPa·s
298.15 K, x1 = 0.6 | 0.821 mPa·s
298.15 K, x1 = 0.6157 | 0.88 mPa·s
298.15 K, x1 = 0.6574 | 0.9047 mPa·s
298.15 K, x1 = 0.699 | 0.8709 mPa·s
298.15 K, x1 = 0.8 | 0.907 mPa·s
298.15 K, x1 = 0.805 | 0.9112 mPa·s
298.15 K, x1 = 0.8116 | 0.9812 mPa·s
298.15 K, x1 = 0.9013 | 0.9506 mPa·s
303.15 K, x1 = 0.1025 | 0.6033 mPa·s
303.15 K, x1 = 0.2004 | 0.6433 mPa·s
303.15 K, x1 = 0.3003 | 0.6712 mPa·s
303.15 K, x1 = 0.402 | 0.7045 mPa·s
303.15 K, x1 = 0.4985 | 0.738 mPa·s
303.15 K, x1 = 0.5991 | 0.7765 mPa·s
303.15 K, x1 = 0.699 | 0.8121 mPa·s
303.15 K, x1 = 0.805 | 0.8545 mPa·s
303.15 K, x1 = 0.9013 | 0.8883 mPa·s
308.15 K, x1 = 0.1 | 0.556 mPa·s
308.15 K, x1 = 0.1025 | 0.5736 mPa·s
308.15 K, x1 = 0.2 | 0.587 mPa·s
308.15 K, x1 = 0.2004 | 0.6196 mPa·s
308.15 K, x1 = 0.3003 | 0.6447 mPa·s
308.15 K, x1 = 0.4 | 0.649 mPa·s
308.15 K, x1 = 0.402 | 0.675 mPa·s
308.15 K, x1 = 0.4985 | 0.7086 mPa·s
308.15 K, x1 = 0.5 | 0.68 mPa·s
308.15 K, x1 = 0.5991 | 0.7422 mPa·s
308.15 K, x1 = 0.6 | 0.715 mPa·s
308.15 K, x1 = 0.699 | 0.7763 mPa·s
308.15 K, x1 = 0.8 | 0.785 mPa·s
308.15 K, x1 = 0.805 | 0.8167 mPa·s
308.15 K, x1 = 0.9013 | 0.8509 mPa·s
313.15 K, x1 = 0.1025 | 0.5191 mPa·s
313.15 K, x1 = 0.2004 | 0.5555 mPa·s
313.15 K, x1 = 0.3003 | 0.5884 mPa·s
313.15 K, x1 = 0.402 | 0.6099 mPa·s
313.15 K, x1 = 0.4985 | 0.6337 mPa·s
313.15 K, x1 = 0.5991 | 0.669 mPa·s
313.15 K, x1 = 0.699 | 0.7007 mPa·s
313.15 K, x1 = 0.805 | 0.7318 mPa·s
313.15 K, x1 = 0.9013 | 0.7626 mPa·s
318.15 K, x1 = 0.1 | 0.489 mPa·s
318.15 K, x1 = 0.2 | 0.517 mPa·s
318.15 K, x1 = 0.4 | 0.57 mPa·s
318.15 K, x1 = 0.5 | 0.597 mPa·s
318.15 K, x1 = 0.6 | 0.626 mPa·s
318.15 K, x1 = 0.8 | 0.684 mPa·s
323.15 K, x1 = 0.1 | 0.46 mPa·s
323.15 K, x1 = 0.2 | 0.485 mPa·s and 0.485 mPa·s
323.15 K, x1 = 0.4 | 0.533 mPa·s
323.15 K, x1 = 0.5 | 0.559 mPa·s and 0.559 mPa·s
323.15 K, x1 = 0.6 | 0.585 mPa·s
323.15 K, x1 = 0.8 | 0.64 mPa·s

c1ccc2ccccc2c1 + c1ccccc1
Conditions | viscosity
293.15 K, 101 kPa, x1 = 0.006242 | 0.653 mPa·s
293.15 K, 101 kPa, x1 = 0.01216 | 0.66 mPa·s
293.15 K, 101 kPa, x1 = 0.02495 | 0.674 mPa·s
298.15 K, 101 kPa, x1 = 0.051 | 0.6565 mPa·s
298.15 K, 101 kPa, x1 = 0.1121 | 0.7261 mPa·s
298.15 K, 101 kPa, x1 = 0.1538 | 0.7707 mPa·s
298.15 K, 101 kPa, x1 = 0.1979 | 0.8263 mPa·s
298.15 K, 101 kPa, x1 = 0.2398 | 0.8764 mPa·s
298.15 K, 101 kPa, x1 = 0.2476 | 0.8712 mPa·s
298.15 K, 101 kPa, x1 = 0.2693 | 0.9178 mPa·s
298.15 K, 101.33 kPa, x1 = 0.0282 | 0.6309 mPa·s
298.15 K, 101.33 kPa, x1 = 0.069 | 0.6732 mPa·s
298.15 K, 101.33 kPa, x1 = 0.0898 | 0.6932 mPa·s
298.15 K, 101.33 kPa, x1 = 0.1341 | 0.7423 mPa·s
298.15 K, 101.33 kPa, x1 = 0.1587 | 0.7733 mPa·s
298.15 K, 101.33 kPa, x1 = 0.2089 | 0.833 mPa·s
298.15 K, 101.33 kPa, x1 = 0.25 | 0.8712 mPa·s
298.15 K, 101.33 kPa, x1 = 0.2533 | 0.8891 mPa·s
303.15 K, 101 kPa, x1 = 0.2476 | 0.8077 mPa·s
303.15 K, 101 kPa, x1 = 0.3593 | 0.9452 mPa·s
303.15 K, 101.33 kPa, x1 = 0.0282 | 0.5882 mPa·s
303.15 K, 101.33 kPa, x1 = 0.069 | 0.6269 mPa·s
303.15 K, 101.33 kPa, x1 = 0.0898 | 0.6448 mPa·s
303.15 K, 101.33 kPa, x1 = 0.1341 | 0.6897 mPa·s
303.15 K, 101.33 kPa, x1 = 0.1587 | 0.7181 mPa·s
303.15 K, 101.33 kPa, x1 = 0.2089 | 0.7723 mPa·s
303.15 K, 101.33 kPa, x1 = 0.25 | 0.8077 mPa·s and 0.8077 mPa·s
303.15 K, 101.33 kPa, x1 = 0.2533 | 0.8222 mPa·s
303.15 K, 101.33 kPa, x1 = 0.26 | 0.8211 mPa·s
303.15 K, 101.33 kPa, x1 = 0.33 | 0.874 mPa·s
303.15 K, 101.33 kPa, x1 = 0.36 | 0.9452 mPa·s and 0.9452 mPa·s
308.15 K, 101 kPa, x1 = 0.2476 | 0.7485 mPa·s
308.15 K, 101 kPa, x1 = 0.3593 | 0.8742 mPa·s
308.15 K, 101.33 kPa, x1 = 0.25 | 0.7485 mPa·s
308.15 K, 101.33 kPa, x1 = 0.36 | 0.8742 mPa·s
313.15 K, 101 kPa, x1 = 0.006242 | 0.501 mPa·s
313.15 K, 101 kPa, x1 = 0.01216 | 0.505 mPa·s
313.15 K, 101 kPa, x1 = 0.02495 | 0.514 mPa·s
313.15 K, 101 kPa, x1 = 0.2476 | 0.6983 mPa·s
313.15 K, 101 kPa, x1 = 0.3593 | 0.8115 mPa·s
313.15 K, 101.33 kPa, x1 = 0.0282 | 0.516 mPa·s
313.15 K, 101.33 kPa, x1 = 0.069 | 0.5478 mPa·s
313.15 K, 101.33 kPa, x1 = 0.0898 | 0.5665 mPa·s
313.15 K, 101.33 kPa, x1 = 0.1341 | 0.6017 mPa·s
313.15 K, 101.33 kPa, x1 = 0.1587 | 0.6263 mPa·s
313.15 K, 101.33 kPa, x1 = 0.2089 | 0.6698 mPa·s
313.15 K, 101.33 kPa, x1 = 0.25 | 0.6983 mPa·s
313.15 K, 101.33 kPa, x1 = 0.2533 | 0.72 mPa·s
313.15 K, 101.33 kPa, x1 = 0.36 | 0.8115 mPa·s
318.15 K, 101 kPa, x1 = 0.2476 | 0.654 mPa·s
318.15 K, 101 kPa, x1 = 0.3593 | 0.7546 mPa·s
318.15 K, 101.33 kPa, x1 = 0.25 | 0.654 mPa·s and 0.654 mPa·s
318.15 K, 101.33 kPa, x1 = 0.26 | 0.666 mPa·s
318.15 K, 101.33 kPa, x1 = 0.33 | 0.7066 mPa·s
318.15 K, 101.33 kPa, x1 = 0.36 | 0.7546 mPa·s and 0.7546 mPa·s
318.15 K, 101.33 kPa, x1 = 0.418 | 0.817 mPa·s
323.15 K, 101 kPa, x1 = 0.009498 | 0.445 mPa·s
323.15 K, 101 kPa, x1 = 0.02432 | 0.454 mPa·s
323.15 K, 101 kPa, x1 = 0.02618 | 0.456 mPa·s
323.15 K, 101.33 kPa, x1 = 0.0282 | 0.4564 mPa·s
323.15 K, 101.33 kPa, x1 = 0.069 | 0.4838 mPa·s
323.15 K, 101.33 kPa, x1 = 0.0898 | 0.4993 mPa·s
323.15 K, 101.33 kPa, x1 = 0.1341 | 0.529 mPa·s
323.15 K, 101.33 kPa, x1 = 0.1587 | 0.5509 mPa·s
323.15 K, 101.33 kPa, x1 = 0.2089 | 0.5871 mPa·s
323.15 K, 101.33 kPa, x1 = 0.2533 | 0.6319 mPa·s

CC(=O)N(C)c1ccccc1 + c1ccncc1
298.15 K, 101 kPa
Conditions | viscosity [mPa·s]
x1 = 0.0361 | 0.967
x1 = 0.06268 | 1.022
x1 = 0.09446 | 1.082
